In a melting point compilation (Tetko et al.; mined from patent text by program, amines drawn as free bases though some values may be those of a salt) one finds melting point data, which are given here for 87 molecules.

The structures appear in SMILES notation. Some results are limits rather than exact numbers.

Usually melting point stands for the temperature, or range, at which the solid turns liquid.

Molecule `CCn1cc(C(=O)O)c(=O)c2ccc(-n3cccc3)nc21` gave a melting point of 230 to 232 °C. Molecule `CC(C)(Cc1ccccc1)C(O)CCN1C(=O)NC(=O)C1CCCCCCC(=O)O` (configuration not stated) showed a melting point of 115 °C. The figure for `C=Cn1cc(C(=O)O)c(=O)c2cc(Cl)c(N3CCNCC3)nc21` is 272 to 274 °C. Turning to `CS(=O)(=O)c1ccc([C@@H](CC2CCCC2)C(=O)Nc2nc3ccccc3[nH]2)cc1`, the melting point lay within 230 to 232 °C. In the case of `O=C(O)C1(c2ccccc2)CCN(Cc2ccccc2)CC1` it was 286 °C. As to `CC1CC(NC(=O)c2ccccc2SC#N)CC(C)(C)C1` (configuration not stated), the melting point amounted to 117 °C. The figure for `O=C1CCC(c2ccc(Cl)c(Cl)c2)c2ccccc21` (configuration not stated) is 99 to 101 °C; for `Cc1cc(-n2ncc(=O)[nH]c2=O)cc(Cl)c1C(C)(C#N)c1ccc(Cl)cc1` (configuration not stated) it is 227 °C; for `CC(C)(C)OC(=O)[C@@H]1CCCN1C(=O)CNS(=O)(=O)c1cccc2cccnc12` it is 150 to 153 °C. Molecule `O=C1Cc2ccc(C3CCCCC3)cc2O1` registered a melting point of 80 to 81 °C. In the case of `CCOC(=O)CN(CC(=O)OCC)[C@H]1CC[C@H](Nc2ncc3ncnc(Nc4ccc(F)c(Cl)c4)c3n2)CC1` it was 155 to 157 °C; in that of `CC(C)(C)C(=O)OCc1cc2c(cc1C#Cc1ccccc1)NC(=O)CC(c1cccc(C#N)c1)=N2`, 218 °C; in that of `Cn1nc2c(oc3ccccc32)c1NC=O`, 184 to 187 °C. In the case of `CCOC(=O)C1C=Nc2c(ccc3cccnc23)C1=O` (configuration not stated) it was 242 to 244 °C; in that of `OC[C@@H]1O[C@H](n2c(NC3CC3)nc3c(Cl)c(Cl)c(Cl)cc32)[C@@H](O)[C@H]1O`, 208 to 209 °C. In the case of `COc1ccc(OC(C)=O)c(C(=O)O)c1` it was 155 to 157 °C; in that of `O=[N+]([O-])C(=Cc1cccs1)C1=NCCN1Cc1ccc(Cl)nc1`, 189 to 190 °C; in that of `CCNC(=O)Nc1nc2cc(-c3cccnc3)cc(C(=O)NC)n2n1`, above 300 °C. Take `Nc1c(-c2cc(Cl)ccc2O)nnn1-c1ccc(Cl)cc1Cl`: the melting point fell in the range of 131 to 136 °C. `CC(C)(C)OC(=O)N1CCCC(CO)(c2ccccc2)C1` (configuration not stated) displayed a melting point of 101 to 104 °C. For the molecule `O=C(Nc1ccc(Cl)cc1)NC1N=C(c2ccccc2F)c2ccccc2NC1=O` (racemic), the melting point was 278 °C. In the case of `CCc1cc2c(cc1F)c(S(C)(=O)=O)c(-c1ccc(S(=O)(=O)NC(C)(C)C)cn1)n2-c1ncccn1` it was 244 to 248 °C; in that of `C=CCS(=O)(=O)c1ccc(N2CC=C(c3ccc(Cl)c(Cl)c3)N2)cc1`, 198 °C; in that of `Cc1c(NC(=O)c2ccc(-c3ccc(OC(F)(F)F)cc3)cc2)ccc2cc(CN3CCCC3)cnc12`, 200 to 202 °C. The figure for `Cc1cc2ncnn2nc1OCC(C)(C)CCS(N)(=O)=O` is 214 to 215 °C. In the case of `O=C(Cc1ccccc1)c1cc(Br)ccc1O` it was 83 to 86 °C; in that of `O=C(CSc1ccc(C(F)(F)F)cn1)C12CC3CC(CC(C3)C1)C2`, 141 to 142 °C; in that of `COc1ccc(N)c(C(=O)Cc2nnnn2C)c1`, 170 to 172 °C. `O=C1NC(c2ccccc2)(c2ccccc2)C(=O)N1COCc1ccccc1` came in with a melting point of 151 to 152 °C. The figure for `CN(CCCOc1ccc(CC2SC(=O)NC2=O)cc1)c1nc2ccccc2o1` (configuration not stated) is 171 to 173 °C; for `CSc1nn2c(N3CCN(C)CC3)nc(C)nc2c1S(=O)(=O)c1ccccc1` it is 169 to 171 °C. Molecule `O=S(=O)(C1=Cc2ccccc2C1)c1ccc(O)cc1` gave a melting point of 209 to 210 °C. In the case of `CC1(O)CC=C2C3CCC4=CC(=O)CCC4C3C(c3ccc(-c4ccoc4)cc3)CC21C` (configuration not stated), the melting point lay in the range of 198 to 199 °C. In the case of `Cc1c(C)c2c(c(C)c1NCc1ccc(F)cc1)C(c1ccccc1)C(C)(C)O2` (configuration not stated) it was 93 to 95 °C. The figure for `Nc1nc2ccccc2c2c1ncn2CCOCCCc1cncnc1` is 159 to 161 °C; for `NC(=O)c1cc2cc(F)c(F)cc2o1` it is 217 °C. The figure for `Cn1cc(C2=C(c3cn(CCCNC(N)=NC#N)c4ccccc34)C(=O)NC2=O)c2ccccc21` is 168 to 170 °C.

`Cc1ccc(C(=O)NCCN(C)C)cc1-n1c(C)cc(OCc2ccc(F)cc2CNC(=O)Nc2cc(C(C)(C)C)nn2-c2ccc(Cl)c(O)c2)c(Cl)c1=O`: the melting point was 177 to 178 °C. In the case of `COC(=O)c1ccc(CO)cc1SCc1ccccc1`, the melting point fell in the range of 89.5 to 92 °C.

Take `CCCN(CCC)C(=O)Cn1c(-c2ccc(Cl)cc2)nc2ccc(Cl)nc21`: the melting point lay within 170 to 174 °C. The figure for `COc1ccc(-c2cnc(SC(F)(F)C(F)F)nc2-c2ccc(OC)cc2)cc1` is 118 to 120 °C.

The molecule `c1ccc(Nc2nsc3nc4ccccc4n23)nc1` yielded a melting point of 156 to 157 °C. The molecule `COC(=O)C(=O)c1cc2ccccc2n1S(=O)(=O)c1ccccc1` returned a melting point of 111 to 112 °C. The figure for `C#CCn1c(=O)n(-c2ccccc2)c2ccccc21` is 145 to 147 °C; for `CN(C(=O)C(C)(C)N1C(=O)c2ccccc2C1=O)C(c1ccc(F)cc1)c1ccc(F)cc1` it is 169 to 171 °C; for `COc1ccc(C(=O)N2CCc3cc(OCc4ccccc4)ccc3C2)cc1OC` it is 126 to 127 °C. In the case of `COc1ccc(-c2oc(C(F)(F)F)nc2-c2ccc(S(N)(=O)=O)cc2)cc1F` it was 150 to 151 °C.

`CN(C1CCN(C(=O)OC(C)(C)C)CC1)S(=O)(=O)c1ccc(Nc2nccc(Nc3ccc(F)cc3)n2)cc1`: the melting point was 174 to 176 °C. In the case of `Fc1ccc(-c2cc(-c3cccs3)[nH]n2)cc1` it was 181 to 184 °C; in that of `Clc1c(CBr)ccc2cc(CBr)ccc12`, 127 to 129 °C; in that of `CC1(C)C(C=CC(=O)OCC(F)(F)F)C1C(=O)OC(C#N)c1ccc(F)c(Oc2ccccc2)c1` (configuration not stated), 56 °C. The figure for `COC(=O)Cc1cc(OCc2ccc3ccccc3n2)ccc1Nc1ccccc1` is 106 to 107 °C; for `CC(=O)NC[C@H]1CN(c2ccc(C3=CCN(C=O)CC3)cc2)C(=O)O1` it is 149 to 152 °C; for `O=C(O)COc1ccc2c(-c3cccc(F)c3F)noc2c1Cl` it is 183 to 187 °C. In the case of `CCCCCCCCCCCCCCOc1ccc(C(=O)O)cc1` it was 95 to 99 °C; in that of `Cc1nc2c(N)nc3ccccc3c2n1CCCS(C)(=O)=O`, 225 to 228 °C.

The molecule `Cc1cc(C)c(C(C#N)C=O)c(C)c1` (configuration not stated) registered a melting point of 120 to 122 °C.

For `CCOC(=O)Nc1nc2ccccc2c2c(CC(C)C)n(C)nc12`, the melting point lay in the range of 120 to 121 °C. The figure for `COc1ccc2[nH]c(SCc3ncnc(N4CCCC4)c3C)nc2c1` is 104 to 106 °C; for `CCC(C)Nc1ccc([N+](=O)[O-])cc1[N+](=O)[O-]` (configuration not stated) it is 53 to 55 °C. In the case of `COc1ccccc1C(=C/C=C/C(=O)Oc1ccc([N+](=O)[O-])cc1)c1ccccc1OC` it was 142 to 143 °C.

Consider `C[C@H](CS)C(=O)N1C(C(=O)O)CCC1c1ccccc1` (some centres not stated), for which the melting point fell in the range of 138 to 142 °C.

Regarding `c1ccc(CN2CCC(Oc3ccccn3)CC2)cc1`, the melting point is 75 °C. In the case of `O=[N+]([O-])c1cc2c(Cl)ncnc2s1` it was 112 °C; in that of `COc1ccc(OC)c(C(=O)C=Cc2cccc(C(=O)O)c2)c1`, 152 to 155 °C. In the case of `COc1ccc(Cc2nnc(N[C@H]3CC[C@H](C(C)C)CC3)c3ccccc23)cn1` it was 124 to 125 °C. In the case of `Cc1cc(-c2nc(C(F)(F)F)cn2-c2ccc(S(C)(=O)=O)c(F)c2)ccc1-c1cscn1` it was 197 to 198 °C; in that of `CCOC(=O)c1nc(-c2ccc(Cl)cc2Cl)n(-c2ccc(C(F)(F)F)cc2)c1C`, 160 to 162 °C; in that of `O=C1C[C@@H](COS(=O)(=O)c2ccccc2)N1`, 102 to 105 °C. `CCN1C[C@@H](C(=O)OC(C)(C)C)NC1=O` showed a melting point of 86 to 87 °C. `CCOC(=O)c1cncc(OC)c1CCCO`: the melting point lay within 85 to 89 °C. In the case of `C=CCOc1ccccc1-c1ccc(C#N)cc1` it was 68 to 69 °C; in that of `CCn1cc(-c2ccc([C@H](C)N3CC[C@](CC(C)(C)O)(c4ccccc4)OC3=O)cc2)ccc1=O`, 167 to 168 °C. In the case of `CCCCCCc1cccc(N2CC(=O)NC(=O)N2)c1` it was 95 to 99 °C; in that of `COC(=O)/C=C/c1ccc(-c2ccc(C(C)C)cc2)s1`, 117 to 119 °C. In the case of `COc1ncccc1-c1cccn2nc(Cl)nc12` it was 218 to 219 °C; in that of `CN1CC[C@]2(c3cccc(O)c3)CC=CC[C@@H]2C1` (relative stereo), 159 °C; in that of `O=c1c(CCCCc2ccccn2)cc2cccnc2n1-c1cccc([N+](=O)[O-])c1`, 163 to 165 °C.

For the molecule `CC(=O)C1CCC(CNC(=O)c2cccnc2Oc2ccc(F)cc2)CC1` (configuration not stated), the melting point was in the range of 110 to 111 °C. In the case of `COc1cc(C(=O)NS(=O)(=O)c2ccccc2C)ccc1Cn1ncc2ccc(NC(=O)CC3CCCC3)cc21` it was 184 to 185 °C. In the case of `CCOC(=O)c1cc2c(C)ccc(NS(=O)(=O)c3cccs3)c2[nH]1` it was 180 to 181 °C; in that of `Cc1c(-c2ccncc2)oc2c1C(=O)CCC2(C)C`, 86 to 88 °C; in that of `CCCCn1ccc(-c2ccc3c(c2)OCCN3C2CCOCC2)c(Cl)c1=O`, 141 °C. The figure for `CCn1c(=O)[nH]c2cc3c(N4CCN(C(=O)Nc5ccc(Oc6ccccc6)cc5)CC4)ncnc3cc21` is 248 to 251 °C; for `CN(C(=O)Cl)c1ccc(C(O)(C(F)(F)F)C(F)(F)F)cc1` it is 152 to 154 °C. Take `CC1(C)CC(Nc2nc(NC3CC(C)(C)NC(C)(C)C3)nc(NC3CC(C)(C)NC(C)(C)C3)n2)CC(C)(C)N1`: the melting point lay in the range of 219 to 221 °C.

In turn, `Cc1cccc(-c2[nH]nnc2-c2ccc3c(c2)N(CCN2CCOCC2)C(=O)CO3)n1` registered a melting point of 150 °C.
